Source: patent publication US20130324520A1, “RXRG MODULATORS FOR THE TREATMENT OF CANCER” (SLOAN-KETTERING INSTITUTE FOR CANCER RESEARCH, priority 2011, published 2013)
“Also recorded” adds a separate entry of the source.

Key:
Saos2 = test: Drug treatment on cancer cell lines, cell counting; format: cell-based; details: for cell growth: RB1 mutated osteosarcoma
Source text: (§1) DMSO was used for control.

CCCL-18 = test: Drug treatment on cancer cell lines, cell counting; format: cell-based; details: KRAS mutant colon cancer CCCL-18; dose series
Source text: as §1

NCI-H1299 = test: Drug treatment on cancer cell lines, cell counting; format: cell-based; details: NRAS mutant large cell lung cancer
Source text: as §1

M21 = test: Drug treatment on cancer cell lines, cell counting; format: cell-based; details: BRAF mutated melanoma
Source text: as §1

DU145 = test: Drug treatment on cancer cell lines, cell counting; format: cell-based; details: RB1 mutated prostate cancer
Source text: as §1

A549 = test: Drug treatment on cancer cell lines, cell counting; format: cell-based; details: for cell growth: KRAS mutant NSCLC A549
Source text: as §1

H209 = test: Drug treatment on cancer cell lines, cell counting; format: cell-based; details: RB1 mutant SCLC
Source text: as §1

HCT116 = test: Drug treatment on cancer cell lines, cell counting; format: cell-based; details: for cell growth: KRAS mutant colon cancer HCT116, dose series
Source text: as §1

U2OS = test: Drug treatment on cancer cell lines, cell counting; format: cell-based; details: RB1 wild type osteosarcoma
Source text: as §1

[1] = tested on: RB1 mutated retinoblastoma; test: RXRG ligands on retinoblastoma cell growth; format: cell-based; details: for retinoblastoma cell growth: in vitro
Protocol: (§2) Colon, lung, pancreatic cancer, retinoblastoma and other cell lines were cultured in culture medium consisting of IMDM (Medium Lab, MSKCC, NY) with 10% FBS (SH3008803, HyClone, Thermo Scientific), 2 mM glutamine (Invitrogen), 55 μM beta-mercaptoethanol (Invitrogen), 1% Penicillin/streptomycin (Invitrogen), and 2.5 μg/ml Plasmocin (Invivogen), at 37° C. in a humidified incubator with 5% CO2. Melanoma cell lines were culture in RPMI with above additives.
(§3) Colon, lung, pancreatic, breast, prostate cancer cell lines and other cancer cell lines were cultured in 10 cm dishes or 24 well plates with complete IMDM or RPMI (for melanoma) with 30-50% confluence. […] DMSO was used for control. After 3-6 days treatment, cells were collected and counted with trypan blue. Dose-effectiveness curves were generated with series dilution of compounds in medium for treatment of cells.

RB177 = test: RXRG ligands on retinoblastoma cell growth; format: cell-based
Protocol: as §2, §3

RXRG in HCT116 = RXRG in HCT116 (Homo sapiens, UniProt P48443)
Protocol: Colon cancer or lung cancer cells were passaged to dishes with coverslips, and incubated in a humidified incubator at 5% CO2 and 37° C. for 1-2 days. The medium was removed and the cells fixed in 4% PFA/PBS for 5 min, gently rinsed with 0.15 M NaCl/20 mM Tris (pH 8.0; TBS), dried, and stored at −20° C. […] After treatment of RXRG ligands or RXRG knockdown, retinoblastoma cells were spread on poly-L-lysine coated slides with medium, and incubated for 3-4 hours before fixation.
Staining with mouse antibodies: Cells were treated with 1 mM EDTA/PBS for 5 min at room temperature and, washed with PBS. […]
Co-staining analyses with other antibodies: On completing the first staining reaction as described above, cells were incubated in block 1 for 20 min, incubated overnight with primary antibody in block 1, washed in PBS, incubated for 30 min in block 1 with Cy3 or Cy5 conjugated secondary antibody, and washed in PBS. […] Mounting Media (Vector Labs), and analyzed by inverted immunofluorescent microscopy (Axioplan2 Imaging, Carl Zeiss MicroImaging, LLC).

H1975 = test: Cell cycle analysis; format: cell-based; details: EGFR mutant NSCLC, day 3
Protocol: For cell cycle analysis, retinoblastoma, neuroblastoma, lung, pancreatic, and colon cancer cells were collected and dissociated on days 3, 5, 7, 9, 11, and 16 after treatment. Cells were fixed by 70% cold ethanol alcohol while vortex, and put in −20° C. for storage. […] At 24 hours after treatment, 4 ug/ml Aphidicolin was added to cells with compounds for 24 hr. Aphidicolin was removed by centrifugation and PBS wash, and then added to new wells with fresh medium and compounds. Cells were collected and fixed before addition of aphidicolin, immediately after removal of aphidicolin, and every two hours thereafter until 16-18 hours.
The tubes with cells were taken out of the freezer and alcohol was removed by centrifugation. 150 ul of 0.06 mg/ml propidium iodide with 0.1% NF40 was added to the cells, and then 100 ul of 2 mg/ml of RNase was added to the cells. These were mixed well and incubated at 37° C. for 30 min. The cell ploidy according to DNA contents were measured in FACSCalibur with FL3-Width and FL3-Height as the parameter. Flowjo was used for analysis of the cell cycle changes.

p53 in A549 = test: p53 immunofluorescence; format: cell-based; details: A549, day 2
Protocol: Staining with mouse antibodies: Cells were treated with 1 mM EDTA/PBS for 5 min at room temperature and, washed with PBS. Cells were treated with ABC kit reagent A (Vector Laboratories, Burlingame, Calif.) in PBS for 15 min, washed in TBS, treated with ABC kit reagent B (Vector Laboratories) in TBS for 15 min, washed in PBS, blocked and permeabilized for 20 min in block 1 (2.5% horse serum, 2.5% donkey serum, 2.5% human serum, 1% BSA, 0.1% Triton-X-100, and 0.05% Tween-20 in TBS; filtered with 0.22 um filter), incubated in the above mouse primary antibodies in block 1 overnight at 4° C., and washed in PBS. […]

[2] = day 3, 6 uM HX531, 10 uM PD98059, 100 nM PD0325901

Chain of RXRG in HCT116 (P48443 whole entry): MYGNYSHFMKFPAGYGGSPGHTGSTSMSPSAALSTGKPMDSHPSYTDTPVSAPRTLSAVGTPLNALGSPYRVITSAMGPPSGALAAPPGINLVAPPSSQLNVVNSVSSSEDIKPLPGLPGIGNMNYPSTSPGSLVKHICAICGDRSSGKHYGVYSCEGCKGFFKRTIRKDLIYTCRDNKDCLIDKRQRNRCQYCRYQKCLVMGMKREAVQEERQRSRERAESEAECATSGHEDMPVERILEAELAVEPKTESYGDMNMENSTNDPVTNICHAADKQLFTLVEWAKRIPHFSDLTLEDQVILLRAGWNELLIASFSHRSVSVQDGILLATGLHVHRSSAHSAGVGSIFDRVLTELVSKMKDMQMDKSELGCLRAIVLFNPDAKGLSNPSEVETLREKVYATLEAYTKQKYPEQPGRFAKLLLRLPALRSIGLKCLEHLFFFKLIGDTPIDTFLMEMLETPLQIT

Compound | cell growth (CCCL-18) | cell growth (NCI-H1299) | cell growth (M21) | cell growth (DU145) | cell growth (A549) | cell growth (H209) | cell growth (HCT116) | cell growth (U2OS) | retinoblastoma cell growth [1] | also measured
C=C(c1ccc(C(=O)O)cc1)c1cc2c(cc1C)C(C)(C)CCC2(C)C [Bexarotene] | promotes KRAS mutant colon cancer cell CCCL-18 growth at low dosages | did not have good effects | suppressed growth | suppressed growth | resistant | suppressed growth | does not show inhibition; also recorded: slightly promotes the growth; also recorded: slightly promotes KRAS mutant colon cancer cell growth at low dosages; also recorded: did not have good effects | did not have good effects | suppressed retinoblastoma cell growth | cell growth (Saos2): suppressed growth; cell growth (Saos2; listed as bexarotene): significantly suppresses; cell growth (M21; listed as bexarotene): significantly suppresses; cell growth (DU145; listed as bexarotene): significantly suppresses; retinoblastoma cell growth ([1]; listed as bexarotene): inhibition of RB1 mutant retinoblastoma growth; also recorded: suppressed retinoblastoma cell growth; cell growth (RB177): suppressed cell growth; RXRG localisation (RXRG in HCT116): RXRG cluster formation and nucleolar translocation
CN1c2ccc([N+](=O)[O-])cc2N=C(c2ccc(C(=O)O)cc2)c2cc3c(cc21)C(C)(C)CCC3(C)C [HX531] | inhibition; also recorded: suppresses KRAS mutant colon cancer CCCL-18 cell growth | growth inhibition is observed | growth inhibition is observed | growth inhibition is observed | inhibition; also recorded: sensitive | growth inhibition is observed | inhibition; also recorded: dose-dependent; also recorded: suppresses KRAS mutant colon cancer cell growth | growth inhibition is observed | promoted retinoblastoma cell growth at low dosages | sensitivity of cell lines to treatment (Saos2; HX531 6 uM (FIG. 22)): not sensitive; growth inhibition, single agent (A549; [2]): significant growth inhibition; growth inhibition, single agent (HCT116; [2]): significant growth inhibition; sensitivity of cell lines to treatment ([1]; HX531 6 uM (FIG. 22)): not sensitive; cell cycle, G1-S transition (H1975): inhibited G1-S transition; p53 activation (p53 in A549): activates p53
